Experimental findings from patent publication US20220095648A1, “USE OF A THRAUSTOCHYTRID BIOMASS FOR MAINTAINING GUT BARRIER FUNCTION” (priority 2019, published 2022) are described below.

Assay [1] relates to sodium-dependent SGLT-1 transporter. As to the kind of experiment: SGLT-1 mediated (active) D-glucose uptake by Caco-2 cells exposed to DON. In kind it is cell-based. Particulars: DON 10 μM alone, total minus passive. An excerpt: In order to test the ability of microalgae to reduce/prevent the effect of DON on nutrient absorption through epithelial cells, Caco-2 cells were exposed to a metabolically active dose of DON, in the absence or presence of Aurantiochytrium mangrovei FCC1325 microalgae (lyophilized microalgae “ML”, or digested lyophilized microalgae “MLD”), at a dose of 1% or 5%. Two main types of nutrients were considered (i.e. glucose and amino acids—more particularly Methionine, Lysine and Threonine), and the following measurements were carried out: • For glucose (D-Glc): passive, active (regulated by the sodium-dependent SGLT-1 transporter) and total (active+passive) absorption • For amino acids (L-Methionine, L-Lysine and L-Threonine): passive, active (regulated by sodium-dependent transport) and total (active+passive) absorption
Briefly, Caco-2 cells were cultured and seeded onto 12-well inserts, as described in Example 1, and then let to differentiate for 16-21 days post-seeding before being used, with medium changes every two days. When differentiated, Caco-2 cells were incubated or not with DON at 10 μM (apically added), in the absence or presence of 1 or 5% (v:v final dilution, apically added) of microalgae preparation (ML or MLD). […] Caco-2 cells were incubated for 12, 24 or 48 hours before nutrient uptake was measured. […]
After an equilibration period of 15 min at 37° C., uptake assay was initiated by the addition of D-Glc, L-Lysine, L-Methionine or L-Threonine diluted in the appropriate Ringer Hepes buffer (400 μl) and added apically onto Caco-2 inserts (final concentration of 100 μM of D-Glc and 400 μM for amino-acids), the basolateral compartment being filled with 400 μl of buffer. […] After 15 minutes incubation, 30 μl of media were collected from apical or basolateral compartments and stored at −20° C. until nutrient quantification. Residual concentrations of D-Glc or L-amino acid present in the apical compartments were measured using enzyme-based quantification assay kits (Glucose Colorimetric/Fluorometric Assay Kit, Sigma-Aldrich). […]

For the next assay, the system named is Caco-2 cells. As to the kind of experiment: TER of Caco-2 cells exposed to DON. In kind it is cell-based. The protocol:
Caco-2 cells were used as a model of intestinal epithelial cells. Cells were routinely grown in culture media (DMEM) supplemented with 10% fetal calf serum and 1% antibiotics (streptomycin penicillin solution). Cells were grown in 75 cm^2 ventilated flasks maintained at 37° C. in a 5% CO2 incubator. Cells were routinely passaged using trypsin-EDTA solution. For the assay, cells were seeded onto 12-well inserts (Thincert, Greiner, pore size 0.4 μm) at an initial density of 200,000 cells/cm^2 and let to differentiate for 10-14 days post-seeding before being used, with medium changes every two days. Cell differentiation was confirmed by reading the TER, using a Volt/Ohm meter (Millipore), at the beginning of the experiment, when the TER value reached 600 Ohm/cm^2. […]
After differentiation, Caco-2 cells were put in contact, during 48 or 72 h, with or without DON at different concentrations (0, 6.25, 12.5, 25, 50 or 100 μM), and with activated charcoal at 1% (w/v) as positive control, or with or without one of the microalgae preparation type at different concentrations (1, 5, or 20% v:v, final dilution), each added on the apical side. At the end of the incubation time, the TER was measured using a Volt/Ohm meter (Millipore), and results were expressed in percentages of the control put in contact with the same concentration of DON but not with the tested product (microalgae or charcoal). […]

With `CC1=C[C@H]2O[C@@H]3[C@H](O)C[C@](C)([C@@]2(CO)[C@H](O)C1=O)[C@]31CO1` [DON, Deoxynivalenol], the “% of inhibition by DON, SGLT-1 mediated” value came to 19.2% in assay [1] (12 h), 52.3% in assay [1] (24 h) and 51.4% in assay [1] (48 h). In the assay on Caco-2 cells (DON 6.25-100 μM, more pronounced as concentration increased), the “effect of DON only on the TER” value is “induced a reduction of the TER”. In addition, the 50% inhibitory concentration (IC50) with Caco-2 cells (IC50 of DON on TER, control without tested product, 48 h) worked out at 11 µM.
